Assay results: paper PMC11350846, “Synthesis of Second-Generation Analogs of Temporin-SHa Peptide Having Broad-Spectrum Antibacterial and Anticancer Effects” (Antibiotics, 2024)
Where a SMILES comes first, the peptide text is derived from it. [ ]: non-standard residue; d: D form. d2Nal = N[C@H](Cc1ccc2ccccc2c1)C(=O)O

What was measured:
E. faecium (DSM 20477) = conditions: E. faecium, from MIC
Method: (§1) The peptides were assessed for their antibacterial activity by determining the minimum inhibitory concentration (MIC) using the two-fold serial dilution method following the National Committee of Clinical Laboratory Standards, as previously described. Gram-negative (Acinetobacter baumannii (DSM 30007), Escherichia coli (ATCC 8739), Enterobacter cloacae (DSM 30054), Helicobacter pylori (ATCC 43504), Klebsiella pneumoniae (DSM 26371), Pseudomonas aeruginosa (ATCC 9027)) and Gram-positive bacteria (Bacillus subtilis (ATCC 6633), Enterococcus faecalis (DSM 2570), Enterococcus faecium (DSM 20477), Staphylococcus aureus (ATCC 6538)) were used for the antibacterial activity assays. In brief, 3 mL of Mueller–Hinton (MH) broth was inoculated with single clusters of the various bacterial strains and incubated overnight at 37 °C with agitation at 200 rpm. The next day, the bacterial solution was diluted with sterile MH by 1/100 and further incubated at 37 °C and 200 rpm until the bacteria reached the log phase growth (OD600nm around 0.6). The bacterial suspension was then adjusted to a density of approximately 10^5 bacteria/mL, and 100 μL was added per well of 96-well microplates (Greiner BioOne, Les Ulis, France), followed by exposure to increasing concentrations of peptides (from 0 to 100 µM, 1:2 dilution). Plates were then incubated at 37 °C for 18-24 h under either aerobic (for A. baumannii, E. cloacae, E. coli, P. aeruginosa, B. subtilis, and S. aureus) or micro-aerobic conditions generated using GasPak units (for E. faecalis, E. faecium and, H. pylori). […] The optical density (OD) at 600nm was measured using a microplate reader (Biotek, Synergy Mx, Les Ulis, France) after the final incubation. All experiments were performed in triplicate (n = 3).

E. coli (ATCC 8739) = conditions: E. coli, from MIC
Method: as §1

K. pneumonia (DSM 26371) = conditions: K. pneumonia, from MIC
Method: as §1

E. cloacae (DSM 30054) = system: E. cloacae (DSM 30054)
Method: as §1

E. faecalis (DSM 2570) = system: E. faecalis (DSM 2570)
Method: as §1

[1] = system: P. aeruginosa (ATCC 9027); conditions: P. aeruginosa, from MIC
Method: as §1

A. baumannii (DSM 30007) = conditions: A. baumannii, from MIC
Method: as §1

Lung Cancer (A549) = format: cell-based, human; conditions: 48 h
Method: (§2) The antiproliferative activity of the peptides was evaluated, as previously described using human cancer cell lines (A549 (lung), A2780 (ovary), HepG-2 (liver), MCF-7 (breast), MiaPaCa-2 (pancreas), MNT-1 (skin), and PC-3 (prostate)) and normal human lung fibroblasts (IMR-90) or epithelial cells (BEAS-2B). The cells were cultured in DMEM supplemented with 10% FBS, 1% L-glutamine, and 1% antibiotics at 37 °C in a 5% CO2 incubator. For the antiproliferative assay, cells were seeded in 96-well plates at approximately 3000 cells/well. Twenty-four hours later, cells were treated with increasing concentrations of peptides (1:2 serial dilution from 100 µM to 0 µM) for 48 h. After treatment, the number of viable cells was determined using a resazurin-based assay, and the fluorescence intensity was measured with a microplate reader (Ex 530 nm/Em 590 nm). The IC50 values of the peptides (i.e., the concentrations causing 50% inhibition of cell proliferation) were determined using GraphPad® Prism 7 software. The experiments were performed in triplicate (n = 3). The cytotoxicity of the peptides was also evaluated using confluent/no-dividing cells, as previously described. Briefly, human cells were seeded onto 96-well plates at 20,000 cells/well. When they reached 80–90% confluence (after 24–48 h), cells were treated with escalating concentrations of peptides. After 48h incubation, cell viability was measured using a resazurin assay and CC50 (i.e., the concentrations causing 50% inhibition of cell viability) and determined using GraphPad® Prism 7 software. The experiments were performed in triplicate (n = 3).

[2] = system: Normal Lung Fibroblast (IMR-90); format: cell-based, human; conditions: 48 h
Method: as §2

Breast Cancer (MCF-7) = format: cell-based, human; conditions: 48 h
Method: as §2

Ovarian Cancer (A2780) = format: cell-based, human; conditions: 48 h
Method: as §2

[3] = system: Pancreatic Cancer (MiaPaCa-2); format: cell-based, human; conditions: 48 h
Method: as §2

Skin Cancer (MNT-1) = format: cell-based, human; conditions: 48 h
Method: as §2

Liver Cancer (HepG-2) = format: cell-based, human; conditions: 48 h
Method: as §2

Prostate Cancer (PC-3) = format: cell-based, human; conditions: 48 h
Method: as §2

[4] = Circular dichroism, secondary structure (Bestsel); format: physicochemical; conditions: CD in 20 mM SDS
Method: Circular dichroism of temporin SHa, [G10a]-SHa and newly synthesised second-generation analogs of [G10a]-SHa in 20 mM SDS are shown in Figure 2. In lipidic environments mimicked by SDS, peptides adopt an alpha helical structure due to their amphipathic nature. This structural feature is important for their antimicrobial activity, allowing for their insertion into bacterial membranes. The hydrophobic region of the peptide interacts with the hydrophobic portion of the lipid while the hydrophilic region remains exposed to the aqueous environment. The percentage of alpha helix, as well as the percentage of other secondary structures, was determined from CD data using Bestsel software (https://bestsel.elte.hu/index.php, (accessed on 22 June 2024)) (Table 3). Temporin-SHa (1) adopted a 49.5% α-helical structure, while its first-generation analog [G10a]-SHa (2) acquired a 82.4% alpha helical structure. The 84.6%, 88.7%, 4.7%, and 53.8% alpha helical structures were acquired for second-generation analogs 3, 4, 5, and 6, respectively.
The far-ultraviolet CD spectra were obtained using a JASCO J-810 spectropolarimeter (Jasco, Tokyo, Japan). In addition to this, the quartz cuvette of 10 mm path length was used. The temperature was maintained at 22 °C, and the output of the instrument was calibrated using D-(+)-10-camphorsulfonic acid. The peptides, which were present at a concentration of 1.0 mg/mL, were dissolved completely in 20 mM SDS at a concentration of 15 µM [21]. The instrument was set to record wavelengths ranging from 190 to 260 nm with a bandwidth of 2 nm. Ten consecutive scans (accumulations) were recorded for each spectrum at a rate of 50 nm/min, and the baseline was acquired under the same conditions.

[5] = system: Normal Lung Epithelium (BEAS-2B); format: cell-based, human; conditions: 48 h
Method: as §2

[6] = system: Gram-negative and Gram-positive bacterial strains
Method: as §1

[7] = system: human cancer and normal/non-cancerous cells; format: cell-based; conditions: tested human cells, up to 100 µM
Method: as §2

| Compound | fold activity compared to [G10a]-SHa (2) (E. faecium (DSM 20477)) | IC50 (Lung Cancer (A549)) | IC50 [2] | IC50 (Breast Cancer (MCF-7)) | IC50 (Ovarian Cancer (A2780)) | IC50 [3] | IC50 (Skin Cancer (MNT-1)) | IC50 (Liver Cancer (HepG-2)) | IC50 (Prostate Cancer (PC-3)) | Antiparallel [4] | Helix (alpha helical structure) [4] | Others [4] | Parallel [4] | Turn [4] | IC50 [5] | also measured |
| --- | --- | --- | --- | --- | --- | --- | --- | --- | --- | --- | --- | --- | --- | --- | --- | --- |
| CC[C@H](C)[C@H](NC(=O)CNC(=O)[C@H](CO)NC(=O)[C@H](CC(C)C)NC(=O)[C@@H](N)Cc1ccccc1)C(=O)N[C@H](C(=O)NCC(=O)N[C@@H](CCSC)C(=O)N[C@@H](CC(C)C)C(=O)N[C@@H](CCCCN)C(=O)N[C@@H](CCCCN)C(=O)N[C@@H](CC(C)C)C(=O)N[C@@H](Cc1ccccc1)C(N)=O)C(C)C [[G10K]-SHa (4), H-Phe^1-Leu^2-Ser^3-Gly^4-IIe^5-Val^6-Gly^7-Met^8-Leu^9-L-Lys^10-Lys^11-Leu^12-Phe^13-NH2] (H-FLSGIVGMLKKLF-NH2) | at least 16 | 32.6 ± 2.4 µM | > 100 µM | 37.4 ± 11.8 µM | 21.8 ± 3.2 µM | 61.4 ± 4.1 µM | 21.7 ± 6.9 µM | 64.3 ± 3.5 µM | 11.7 ± 1.2 µM | 11.30% | 88.70% | 0.00% | 0.00% | 0.00% | – | fold activity compared to [G10a]-SHa (2) (E. coli (ATCC 8739)): at least four times more active; fold activity compared to [G10a]-SHa (2) (K. pneumonia (DSM 26371)): at least four times more active; fold activity compared to [G10a]-SHa (2) (E. cloacae (DSM 30054); E. cloacae, from MIC): about eight times more active; fold increase in activity relative to the parent peptide (1) (E. cloacae (DSM 30054); Enterobacter cloacae DSM 30054, from MIC): 4; fold increase in activity relative to the parent peptide (1) (E. faecalis (DSM 2570); Enterococcus faecalis DSM 2570, from MIC): 4; fold activity compared to [G10a]-SHa (2) [1]: at least four times more active; fold activity compared to [G10a]-SHa (2) (A. baumannii (DSM 30007)): at least four times more active; Helix (alpha helical structure) ([4]; listed as 4): 88.7% |
| CC[C@H](C)[C@H](NC(=O)CNC(=O)[C@H](CO)NC(=O)[C@H](CC(C)C)NC(=O)[C@@H](N)Cc1ccccc1)C(=O)N[C@H](C(=O)NCC(=O)N[C@@H](CCSC)C(=O)N[C@@H](CC(C)C)C(=O)N[C@H](Cc1ccccc1)C(=O)N[C@@H](CCCCN)C(=O)N[C@@H](CC(C)C)C(=O)N[C@@H](Cc1ccccc1)C(N)=O)C(C)C [[G10f]-SHa (3), H-Phe^1-Leu^2-Ser^3-Gly^4-IIe^5-Val^6-Gly^7-Met^8-Leu^9-D-Phe^10-Lys^11-Leu^12-Phe^13-NH2] (H-FLSGIVGML[dF]KLF-NH2) | 32 | 3.6 ± 0.7 µM | 14.2 ± 0.6 µM | 4.4 ± 1.3 µM | 6.6 ± 0.5 µM | 6.8 ± 0.4 µM | 5.5 ± 0.4 µM | 19.8 ± 1.7 µM | 4.9 ± 0.3 µM | 15.40% | 84.60% | 0.00% | 0.00% | 0.00% | 7.8 ± 0.3 µM | Helix (alpha helical structure) ([4]; listed as 3): 84.6% |
| CC[C@H](C)[C@H](NC(=O)CNC(=O)[C@H](CO)NC(=O)[C@H](CC(C)C)NC(=O)[C@@H](N)Cc1ccccc1)C(=O)N[C@H](C(=O)NCC(=O)N[C@@H](CCSC)C(=O)N[C@@H](CC(C)C)C(=O)N[C@H](Cc1ccc2ccccc2c1)C(=O)N[C@@H](CCCCN)C(=O)N[C@@H](CC(C)C)C(=O)N[C@@H](Cc1ccccc1)C(N)=O)C(C)C [[G10n]-SHa (5), H-Phe^1-Leu^2-Ser^3-Gly^4-IIe^5-Val^6-Gly^7-Met^8-Leu^9-D-NAL^10-Lys^11-Leu^12-Phe^13-NH2] (H-FLSGIVGML[d2Nal]KLF-NH2) | – | > 100 µM | > 100 µM | > 100 µM | > 100 µM | > 100 µM | > 100 µM | > 100 µM | > 100 µM | 34.10% | 4.70% | 47.20% | 1.10% | 12.90% | > 100 µM | MIC values, range over strains [6]: 50 to 100 µM; Helix (alpha helical structure) ([4]; listed as 5): 4.7%; activity against the tested human cells [7]: inactive |
| CC[C@H](C)[C@H](NC(=O)CNC(=O)[C@H](CO)NC(=O)[C@H](CC(C)C)NC(=O)[C@@H](N)Cc1ccccc1)C(=O)N[C@H](C(=O)NCC(=O)N[C@@H](CCSC)C(=O)N[C@@H](CC(C)C)C(=O)N[C@H](Cc1ccc(O)cc1)C(=O)N[C@@H](CCCCN)C(=O)N[C@@H](CC(C)C)C(=O)N[C@@H](Cc1ccccc1)C(N)=O)C(C)C [[G10y]-SHa (6), H-Phe^1-Leu^2-Ser^3-Gly^4-IIe^5-Val^6-Gly^7-Met^8-Leu^9-D-Tyr^10-Lys^11-Leu^12-Phe^13-NH2] (H-FLSGIVGML[dY]KLF-NH2) | at least eight times more activity | – | – | 13.1 ± 3.6 µM | 23.2 ± 3.1 µM | 23.9 ± 3.9 µM | 44.1 ± 8.1 µM | 40.3 ± 7.2 µM | 19.3 ± 1.2 µM | 15.10% | 53.80% | 0.00% | 31.10% | 0.00% | – | fold activity compared to [G10a]-SHa (2) (E. faecalis (DSM 2570); E. faecalis, from MIC): twice the activity; Helix (alpha helical structure) ([4]; listed as 6): 53.8% |
